Source: patent US12465582B2, “(S)-2-amino-6-((3-aminopropyl)amino)hexanoic acid (APL) for use in the treatment of non-alcoholic steatohepatitis (NASH), liver inflammation, hepatocellular ballooning, liver fibrosis and steatosis” (Temple University—Of The Commonwealth System Of Higher …, priority 2020, dated 2025)

Columns and labels:
Type in all cases: in vivo
[1] = test system: C57BL/6J mice fed AMLN diet changed to HFD; test: NAS and liver fibrosis in AMLN diet mouse model of NASH; details: APL p.o. b.i.d., 16 weeks
Protocol: FIG. 12, comprising FIGS. 12A and 12B, depicts data regarding NAS and fibrosis in an AMLN diet mouse model of NASH. C57BL/6J mice were fed either CHOW or a modified AMLN diet that was changed to HFD after twenty (20) weeks. At seek fifty (50) mice were treated with vehicle or APL (p.o.b.i.d.). The APL dosage 25, 50, or 100 mg/kg, oral administration (p.o.) in two dosages per day (b.i.d.) (total dosage of 50, 100, or 200 mg/kg/day). After sixteen (16) weeks of treatment with vehicle or APL biopsies were collected and stained with hematoxylin & eosin (H&E) and evaluated for steatosis, inflammation, and hepatocyte ballooning. FIG. 12A depicts the reduction in NAS the treated group as compared to the positive control. […] FIG. 12B depicts the reduction in liver fibrosis in the treated group as compared to the positive control.
C57BL/6 mice were maintained in cages and had free access to standard rodent chow (Cat #5053, obtained from Labdiet, Saint Louis, MO) and water. C57BL/6J mice were fed either CHOW (negative control) or amylin liver NASH (AMLN) diet (58% high fat, 25% carbohydrate, 2% cholesterol) for twenty (20) weeks. Beginning at twenty (20) weeks, animals fed AMLN diet were changed to HFD. At fifty (50) weeks, animals were treated twice daily (b.i.d.) with oral administration (p.o.) of either vehicle (positive control) or APL (treated).

[2] = test system: 4-hydroxynonenal (4-HNE) in liver of Zucker (fa/fa) obese rats; test: Hepatic 4-HNE immunofluorescence (protein carbonyls) in rat NASH model
Excerpt: Zucker (fa/fa) obese rats and Zucker (Fa/fa) lean rats (7-week old male animals obtained from Charles Rivers Laboratories, Wilmington, MA, USA) were maintained in individual cages (1 rat per cage to encourage sedentary activity) and had free access to standard rodent chow (Cat #5053 obtained from Labdiet, Saint Louis, MO) and water for (filtered and packed using a Hydrapak system) for 7 days until the start of the experiment. Zucker (fa/fa) obese rats were randomly assigned to two groups: 1) vehicle p.o.b.i.d. (oral administration, twice a day) for 78 days; and 2) 100 milligram per kilogram (mg/kg) body weight APL (p.o.b.i.d.) for 78 days. Zucker (Fa/fa) lean rats served as control. The APL dosage was 100 mg/kg/day. Animals were fed ad libitum. The animals were humanely euthanized, and the livers were removed for histological analysis. Liver samples in formalin were allowed to fix for 48 hours, and processed into FFPE blocks after fixations. Slides were stained with hematoxylin and eosin (H&E) and Mason trichrome staining.
Liver samples from the Zucker rats in Example 4 were stained with an anti-4HNE antibody from Abcam (catalog #ab46545) for immunofluorescent analysis of the presence of 4-HNE. The data are depicted in FIG. 9. FIG. 9A are representative images of 4-HNE immunofluorescence liver sections from Zucker (Fa/fa) lean rats, Zucker (fa/fa) obese rats administered vehicle, and Zucker (fa/fa) obese rats administered vehicle administered APL. FIG. 9B is a plot of the 4HNE immunofluorescence intensity per tissue area, and FIG. 9C is a plot of total tissue area. […] Cytotoxic lipid by products such as 4-HNE are known to be elevated in human NASH livers as compared to healthy livers. See e.g., Serviddio et al., Uncoupling protein-2 (UCP2) induces mitochondrial proton leak and increases susceptibility of non-alcoholic steatohepatitis (NASH) liver to ischaemia-reperfusion injury. Gut. 2008 July; 57(7):957-65. doi: 10.1136/gut.2007.147496. Epub 2008 Feb. 28. The data implies that 4-HNE plays a crucial role in the pathogenesis of NASH.

[3] = test system: 4-hydroxynonenal (4-HNE) in liver of C57BL/6J mice fed HFD; test: Hepatic 4-HNE immunofluorescence (protein carbonyls) in DIO mouse NASH model; details: 130 days
Protocol: Liver samples from C57BL/6J mice fed chow and treated with vehicle, C57BL/6J mice fed HFD and treated with vehicle, and C57BL/6J mice fed HFD and treated with APL, as described in Example 1, were prepared and stained with an anti-4HNE antibody from Abcam (catalog #ab46545) for immunofluorescent analysis of the presence of 4-HNE. The APL dosage, administration frequency, and duration of treatment were as described in Example 1 (APL dosage administered to each animal was 200 milligrams per kilogram of body weight divided in two dosages per day, via oral gavage; treatment duration of 130 days; animals fed ad libitum). The data are depicted in FIG. 10. FIG. 10A are representative images of 4-HNE immunofluorescence liver sections from C57BL/6J mice fed chow and treated with vehicle, C57BL/6J mice fed HFD and treated with either vehicle or APL (TB-019) at 20× or 63× magnification. FIG. 10B is a plot of the 4-HNE immunofluorescence intensity per tissue area.

[4] = test system: C57BL/6J mice fed high fat/high fructose diet (HFD); test: NAFLD Activity Score (NAS) in HFD DIO mouse model of NASH; details: 130 days
Protocol: C57BL/6J mice were maintained in cages (5 mice per cage) and had free access to standard rodent chow (Cat #5053, obtained from Labdiet, Saint Louis, MO) and water (filtered and packed using a Hydrapak system) for 5 days until the start of the experiment. The animals were then randomly assigned to three groups (n=5 for each group receiving different diets and treatments as shown in Table B for 130 days. Each treatment was administered p.o.b.i.d. The APL dosage was 200 mg/kg body weight. “HFD” is high fat/high fructose diet, as described in Example 1 “Chow” refers to standard rodent chow, as described in Example 1. Animals were fed ad libitum.
At the conclusion of the test period, the animals were humanely euthanized, and the livers were removed for histological analysis. Liver samples in formalin were allowed to fix for 48 hours, and processed into FFPE blocks after fixations. Slides were stained with hematoxylin and eosin (H&E). FIG. 6A is the representation of multiple images of hematoxylin & eosin (H&E) staining of liver sections.
The liver samples were evaluated for liver fat (steatosis), inflammation, and hypertrophy in accordance the NAS scoring system. The NAS scoring is depicted in FIG. 6B. The NAS score for mice in the HFD/vehicle-treated mice is increased in all the pathological parameters, when compared with the CHOW/vehicle-treated mice: macrovesicular steatosis, microvesicular steatosis, hepatic hypertrophy and inflammatory foci. […] Thus, APL attenuates hepatic steatosis, inflammation and hypertrophy in the liver, each pathognomic of liver damage and NASH.

[5] = Zucker obese rats, 100 mg/kg APL p.o. b.i.d., 78 days, ***p<0.001

Compound: NCCCNCCCC[C@H](N)C(=O)O [APL, (S)-2-amino-6-((3-aminopropyl)amino)hexanoic acid]
- liver fibrosis vs positive control (FIG. 12B) ([1]; ****p<0.0001): significant reduction
- NAS vs positive control (FIG. 12A) ([1]; ***p<0.001): significant reduction
- hepatic 4-HNE intensity / total tissue area, treated vs negative control ([2]; Zucker obese rats treated with APL vs lean control): No significant statistical difference
- hepatic 4-HNE immunofluorescence intensity per tissue area, treated vs obese vehicle [2, 5]: significantly reduces
- total liver tissue area (FIG. 9C), treated vs obese vehicle [2, 5]: maintains the total liver tissue area
- protein carbonyls in liver (4-HNE immunofluorescence intensity per tissue area), treated vs HFD vehicle ([3]; APL 200 mg/kg/day in two doses, oral gavage, ***p<0.001): reduced
- 4-HNE immunofluorescence intensity per tissue area, treated vs negative control (chow vehicle) ([3]; APL 200 mg/kg/day): No statistical difference
- NAS parameters: macrovesicular steatosis, microvesicular steatosis, hepatic hypertrophy, inflammatory foci (FIG. 6B) ([4]; APL 200 mg/kg p.o. b.i.d., vs HFD vehicle, ***p<0.001): statistically significant amelioration
- lobular inflammation score, treated group vs negative control (FIG. 7B) ([4]; APL 200 mg/kg, ****p<0.0001): significant statistical difference
- NAS component scores: steatosis, lobular inflammation, hepatic ballooning (FIG. 7B), treated vs positive control ([4]; APL 200 mg/kg/day divided into 2 doses, ****p<0.0001): significantly reduces
